Assay results published in patent US6677466B1, “Method for stabilizing hydrogen peroxide” (DSM Fine Chemicals Austria NFG GmbH & Co KG, priority 1999, dated 2004).

Experiment: O2 evolution from RuO2.xH2O-catalysed decomposition of H2O2 with stabilizer
Format: physicochemical
Procedure: A 50% strength aqueous solution of H2O2 (304 mg; 4.46 mmol) was added to 454 mg (4.46 mmol) of methyl pyruvate and to 535 mg (4.46 mmol) of glyoxylic methyl ester methyl hemiacetal, respectively. In the case of methyl pyruvate, a marked evolution of heat was discovered during the addition. After one hour, the H2O2/α-keto ester mixture was mixed with 1 ml of solvent and added to a suspension of 2.5 mg of RuO2.xH2O catalyst (Aldrich) in 4 ml of solvent. The suspension was introduced into a 50 ml flask which was maintained at room temperature in a water bath.
As a comparison, a suspension of 2.5 mg of RuO2.xH2O catalyst (Aldrich) in 4 ml of solvent was combined with a 50% strength aqueous solution of H2O2 (304 mg; 4.46 mmol) and 1 ml of solvent without stabilizer.
The amount of oxygen which […] the decomposition of the hydrogen peroxide was determined as a function of time using a Brooks meter, which permitted measurement of the gas flow and of the total amount of evolved gas.
The amount of oxygen is defined here as % of the maximum amount to be calculated on the basis of stoichiometry.

Structure (SMILES): COC(=O)C(O)OC (stereo not drawn) [GMHA, glyoxylic methyl ester methyl hemiacetal]
- O2 evolution V(O2) (Vmax(O2)*100%) (solv. acetic acid, t 1 min): 0%
- O2 evolution V(O2) (Vmax(O2)*100%) (solv. acetic acid, t 2 min): 1%
- O2 evolution V(O2) (Vmax(O2)*100%) (solv. acetic acid, t 3 min): 2%
- O2 evolution V(O2) (Vmax(O2)*100%) (solv. acetic acid, t 4 min): 2%
- O2 evolution V(O2) (Vmax(O2)*100%) (solv. acetic acid, t 5 min): 2%
- O2 evolution V(O2) (Vmax(O2)*100%) (solv. acetic acid, t 10 min): 2%
- O2 evolution V(O2) (Vmax(O2)*100%) (solv. acetic acid, t 15 min): 2%
- O2 evolution V(O2) (Vmax(O2)*100%) (solv. acetic acid, t 20 min): 2%
- O2 evolution V(O2) (Vmax(O2)*100%) (solv. acetic acid, t 25 min): 2%
- O2 evolution V(O2) (Vmax(O2)*100%) (solv. acetic acid, t 30 min): 2%
- O2 evolution V(O2) (Vmax(O2)*100%) (solv. acetic acid, t 35 min): 2%
- O2 evolution V(O2) (Vmax(O2)*100%) (solv. acetic acid, t 40 min): 2%
- O2 evolution V(O2) (Vmax(O2)*100%) (solv. acetone, t 1 min): 0%
- O2 evolution V(O2) (Vmax(O2)*100%) (solv. acetone, t 2 min): 0%
- O2 evolution V(O2) (Vmax(O2)*100%) (solv. acetone, t 3 min): 0%
- O2 evolution V(O2) (Vmax(O2)*100%) (solv. acetone, t 4 min): 0%
- O2 evolution V(O2) (Vmax(O2)*100%) (solv. acetone, t 5 min): 0%
- O2 evolution V(O2) (Vmax(O2)*100%) (solv. acetone, t 10 min): 0%
- O2 evolution V(O2) (Vmax(O2)*100%) (solv. acetone, t 15 min): 0%
- O2 evolution V(O2) (Vmax(O2)*100%) (solv. acetone, t 20 min): 0%
- O2 evolution V(O2) (Vmax(O2)*100%) (solv. acetone, t 25 min): 0%
- O2 evolution V(O2) (Vmax(O2)*100%) (solv. acetone, t 30 min): 0%
- O2 evolution V(O2) (Vmax(O2)*100%) (solv. acetone, t 35 min): 0%
- O2 evolution V(O2) (Vmax(O2)*100%) (solv. acetone, t 40 min): 0%
- O2 evolution V(O2) (Vmax(O2)*100%) (solv. acetonitrile, t 1 min): 3%
- O2 evolution V(O2) (Vmax(O2)*100%) (solv. acetonitrile, t 2 min): 3%
- O2 evolution V(O2) (Vmax(O2)*100%) (solv. acetonitrile, t 3 min): 3%
- O2 evolution V(O2) (Vmax(O2)*100%) (solv. acetonitrile, t 4 min): 3%
- O2 evolution V(O2) (Vmax(O2)*100%) (solv. acetonitrile, t 5 min): 3%
- O2 evolution V(O2) (Vmax(O2)*100%) (solv. acetonitrile, t 10 min): 3%
- O2 evolution V(O2) (Vmax(O2)*100%) (solv. acetonitrile, t 15 min): 3%
- O2 evolution V(O2) (Vmax(O2)*100%) (solv. acetonitrile, t 20 min): 3%
- O2 evolution V(O2) (Vmax(O2)*100%) (solv. acetonitrile, t 25 min): 3%
- O2 evolution V(O2) (Vmax(O2)*100%) (solv. acetonitrile, t 30 min): 3%
- O2 evolution V(O2) (Vmax(O2)*100%) (solv. acetonitrile, t 35 min): 3%
- O2 evolution V(O2) (Vmax(O2)*100%) (solv. acetonitrile, t 40 min): 3%
- O2 evolution V(O2) (Vmax(O2)*100%) (solv. ethyl acetate, t 1 min): 3%
- O2 evolution V(O2) (Vmax(O2)*100%) (solv. ethyl acetate, t 2 min): 5%
- O2 evolution V(O2) (Vmax(O2)*100%) (solv. ethyl acetate, t 3 min): 6%
- O2 evolution V(O2) (Vmax(O2)*100%) (solv. ethyl acetate, t 4 min): 7%
- O2 evolution V(O2) (Vmax(O2)*100%) (solv. ethyl acetate, t 5 min): 8%
- O2 evolution V(O2) (Vmax(O2)*100%) (solv. ethyl acetate, t 10 min): 9%
- O2 evolution V(O2) (Vmax(O2)*100%) (solv. ethyl acetate, t 15 min): 9%
- O2 evolution V(O2) (Vmax(O2)*100%) (solv. ethyl acetate, t 20 min): 9%
- O2 evolution V(O2) (Vmax(O2)*100%) (solv. ethyl acetate, t 25 min): 9%
- O2 evolution V(O2) (Vmax(O2)*100%) (solv. ethyl acetate, t 30 min): 9%
- O2 evolution V(O2) (Vmax(O2)*100%) (solv. ethyl acetate, t 35 min): 9%
- O2 evolution V(O2) (Vmax(O2)*100%) (solv. ethyl acetate, t 40 min): 9%
- O2 evolution V(O2) (Vmax(O2)*100%) (solv. methanol, t 1 min): 0%
- O2 evolution V(O2) (Vmax(O2)*100%) (solv. methanol, t 2 min): 0%
- O2 evolution V(O2) (Vmax(O2)*100%) (solv. methanol, t 3 min): 0%
- O2 evolution V(O2) (Vmax(O2)*100%) (solv. methanol, t 4 min): 0%
- O2 evolution V(O2) (Vmax(O2)*100%) (solv. methanol, t 5 min): 0%
- O2 evolution V(O2) (Vmax(O2)*100%) (solv. methanol, t 10 min): 0%
- O2 evolution V(O2) (Vmax(O2)*100%) (solv. methanol, t 15 min): 0%
- O2 evolution V(O2) (Vmax(O2)*100%) (solv. methanol, t 20 min): 0%
- O2 evolution V(O2) (Vmax(O2)*100%) (solv. methanol, t 25 min): 0%
- O2 evolution V(O2) (Vmax(O2)*100%) (solv. methanol, t 30 min): 0%
- O2 evolution V(O2) (Vmax(O2)*100%) (solv. methanol, t 35 min): 0%
- O2 evolution V(O2) (Vmax(O2)*100%) (solv. methanol, t 40 min): 0%
- O2 evolution V(O2) (Vmax(O2)*100%) (solv. t-butanol, t 1 min): 0%
- O2 evolution V(O2) (Vmax(O2)*100%) (solv. t-butanol, t 2 min): 0%
- O2 evolution V(O2) (Vmax(O2)*100%) (solv. t-butanol, t 3 min): 0%
- O2 evolution V(O2) (Vmax(O2)*100%) (solv. t-butanol, t 4 min): 0%
- O2 evolution V(O2) (Vmax(O2)*100%) (solv. t-butanol, t 5 min): 0%
- O2 evolution V(O2) (Vmax(O2)*100%) (solv. t-butanol, t 10 min): 0%
- O2 evolution V(O2) (Vmax(O2)*100%) (solv. t-butanol, t 15 min): 0%
- O2 evolution V(O2) (Vmax(O2)*100%) (solv. t-butanol, t 20 min): 0%
- O2 evolution V(O2) (Vmax(O2)*100%) (solv. t-butanol, t 25 min): 0%
- O2 evolution V(O2) (Vmax(O2)*100%) (solv. t-butanol, t 30 min): 0%
- O2 evolution V(O2) (Vmax(O2)*100%) (solv. t-butanol, t 35 min): 0%
- O2 evolution V(O2) (Vmax(O2)*100%) (solv. t-butanol, t 40 min): 0%
- O2 evolution V(O2) (Vmax(O2)*100%) (solv. water, t 1 min): 3%
- O2 evolution V(O2) (Vmax(O2)*100%) (solv. water, t 2 min): 4%
- O2 evolution V(O2) (Vmax(O2)*100%) (solv. water, t 3 min): 5%
- O2 evolution V(O2) (Vmax(O2)*100%) (solv. water, t 4 min): 6%
- O2 evolution V(O2) (Vmax(O2)*100%) (solv. water, t 5 min): 10%
- O2 evolution V(O2) (Vmax(O2)*100%) (solv. water, t 10 min): 13%
- O2 evolution V(O2) (Vmax(O2)*100%) (solv. water, t 15 min): 13%
- O2 evolution V(O2) (Vmax(O2)*100%) (solv. water, t 20 min): 13%
- O2 evolution V(O2) (Vmax(O2)*100%) (solv. water, t 25 min): 13%
- O2 evolution V(O2) (Vmax(O2)*100%) (solv. water, t 30 min): 13%
- O2 evolution V(O2) (Vmax(O2)*100%) (solv. water, t 35 min): 13%
- O2 evolution V(O2) (Vmax(O2)*100%) (solv. water, t 40 min): 13%
